These results are taken from ChEMBL document CHEMBL1201862, “PubChem BioAssay data set” (2004).

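Five concentrations, 48 hours, 96-well plates. GI50 is the concentration that inhibits growth by half.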 The source made the active and inactive calls. Cut-off read from the data, not from the text of the source: active = GI50 up to about 1.1 µM and inactive = higher.

Holding throughout (assay): NCI tumour cell line growth inhibition, 48 h
For assay [1], the system named is KM12.
Assay [2] deals with A549.
Assay [3] relates to HOP-62.
For assay [4], the system named is SF-295.
For assay [5], the system named is SN12C.
Assay [6] concerns EKVX.
Assay [7] has as its system K562.
Assay [8] relates to SNB-19.
In assay [9] the test system is HL-60.
Assay [10] has as its system IGROV-1.
For assay [11], the system named is UACC-62.
The test system of assay [12] is RPMI-8226.
Assay [13] has as its system HCT-15.
In assay [14] the test system is OVCAR-8.
For assay [15], the system named is SF-539.
In assay [16] the test system is CCRF-CEM.
For assay [17], the system named is NCI-H522.
Assay [18] has as its system HOP-92.
Assay [19] concerns NCI-H226.
Assay [20] deals with HCC 2998.

As to `O=S(=O)(c1ccc(I)cc1)N(c1ccccc1)S(=O)(=O)C(F)(F)C(F)(F)C(F)(F)C(F)(F)F`, the GI50 in assay [1] is 18.8 µM (inactive); in [2], 31.5 µM (inactive); in [3], 24.3 µM (inactive); in [4] it was 24 µM (inactive); in assay [5] it was > 100 µM (inactive); in assay [6], 40.8 µM (inactive). Further, the GI50 in assay [7] is 41.6 µM (inactive); in [8] it was 74.3 µM (inactive); in [9], 97.7 µM (inactive); in assay [10], > 100 µM (inactive); in assay [11] it was 25.5 µM (inactive); in assay [12], 42.7 µM (inactive). In addition, the GI50 in [13] is 41.2 µM; in assay [14], 48 µM (inactive); in assay [15] it was 35.6 µM (inactive); in assay [16], 40.9 µM (inactive); in assay [17], 28.2 µM (inactive); in assay [18], 15.4 µM (inactive). Further, in [19], the GI50 is 22.9 µM (inactive).
Take `Cc1ccc(SSCCCCCS(=O)O)cc1`: the GI50 in [1] was 36.1 µM (inactive); in assay [3], 29.9 µM (inactive); in assay [5], 20.6 µM (inactive); in assay [6], 45.3 µM (inactive); in assay [20] it was 46.7 µM (inactive); in assay [7], 21.2 µM (inactive). Further, the GI50 in [8] was 35.4 µM (inactive); in assay [9], 16.6 µM (inactive); in [11] it was 23.5 µM (inactive); in assay [12], 24.9 µM (inactive); in assay [15], 16.2 µM (inactive); in [16], 4.68 µM (inactive). For the same compound, the GI50 in [17] is 14.6 µM (inactive).
In the case of `CC1(Cl)CC2C(CC1Sc1nnnn1-c1ccccc1)C2(C)C` (configuration not stated), the GI50 in [1] is 55.6 µM (inactive); in assay [2], 67.1 µM (inactive); in assay [3], > 100 µM (inactive); in assay [4], 40.8 µM (inactive); in [5] it was > 100 µM (inactive); in [6], 28.1 µM (inactive). The GI50 in assay [20] was > 100 µM (inactive); in [7] it was 32.4 µM (inactive); in assay [8], 83.2 µM (inactive); in [9], 17.9 µM (inactive); in assay [10], > 100 µM (inactive); in assay [11], 98.9 µM (inactive). Further, the GI50 in assay [12] was 27.8 µM (inactive); in assay [13] it was 41.3 µM; in assay [14], > 100 µM (inactive); in assay [15], > 100 µM (inactive); in assay [16] it was 36.7 µM (inactive); in assay [18], 58.6 µM (inactive). Besides, in assay [19], the GI50 was > 100 µM (inactive).
For the compound `CSCC[C@@H](NC(=O)[C@H](CC(C)C)NC(=O)C(Cc1cnc[nH]1)NC(=O)CNC(=O)[C@@H](NC(=O)[C@H](C)NC(=O)[C@H](Cc1cn(C=O)c2ccccc12)NC(=O)[C@H](CCC(N)=O)NC(=O)[C@@H](N)CC(N)=O)C(C)C)C(N)=O` (some centres not stated), the GI50 in assay [1], in assay [2], in assay [3], in assay [4], in assay [5] and in assay [6] was > 100 µM (inactive) each time. Moreover, the GI50 in assay [20], in assay [7], in assay [8], in assay [9], in assay [10] and in assay [11] was > 100 µM (inactive) in each case. Moreover, the GI50 in [12] was > 100 µM (inactive); in assay [13], above 100 µM; in assay [14] it was > 100 µM (inactive); in assay [15], > 100 µM (inactive); in assay [16] it was > 100 µM (inactive); in assay [17] it was > 100 µM (inactive). In assay [19], the GI50 is > 100 µM (inactive).
On to `COc1ccccc1/C=C1\S/C(=N/Nc2nc(C)c(C(C)=O)s2)NC1=O`, for which the GI50 was 38 µM (inactive) in assay [1]; 44.8 µM (inactive) in [2]; 81.1 µM (inactive) in assay [3]; 51.5 µM (inactive) in assay [4]; 65.9 µM (inactive) in assay [5]; 94.6 µM (inactive) in assay [20]. Further, the GI50 in assay [7] was 34 µM (inactive); in assay [8], 51.2 µM (inactive); in assay [9], 26.1 µM (inactive); in [11], 36.4 µM (inactive); in [12], 30.4 µM (inactive); in [14], 33.3 µM (inactive). In addition, the GI50 in [15] was 44.1 µM (inactive); in assay [16], 43.4 µM (inactive); in [18], 19.6 µM (inactive); in [19], 5.3 µM (inactive).
Consider `COc1ccc(CCn2nccc2C)cc1`, for which the GI50 in assay [1] is > 100 µM (inactive); in [2], > 100 µM (inactive); in assay [3] it was > 100 µM (inactive); in assay [4], > 100 µM (inactive); in assay [5], 80.9 µM (inactive); in assay [6], 93.8 µM (inactive). Also, the GI50 in assay [7], in assay [8], in assay [9], in assay [10], in assay [11] and in [12] was > 100 µM (inactive) in each case. For the same compound, the GI50 is above 100 µM in assay [13], > 100 µM (inactive) in [14], > 100 µM (inactive) in assay [15] and > 100 µM (inactive) in assay [16].
As for `c1ccc(C2=NNC3c4ccccc4-c4ccccc4N3C2)cc1` (configuration not stated), the GI50 in [1] is 37.1 µM (inactive); in assay [2], 32.7 µM (inactive); in assay [3], 46.1 µM (inactive); in assay [4], 35.6 µM (inactive); in [5] it was 35.3 µM (inactive); in assay [6] it was 35.5 µM (inactive). Besides, the GI50 in [7] was 23.9 µM (inactive); in [8] it was 40 µM (inactive); in assay [9] it was 2.08 µM (inactive); in assay [10], 31.6 µM (inactive); in [11] it was 16.4 µM (inactive); in assay [12], 19 µM (inactive). For the same compound, the GI50 in [13] was 48.4 µM; in assay [14] it was 33.8 µM (inactive); in assay [15], 22.4 µM (inactive); in [17], 26.1 µM (inactive); in assay [18], 52.5 µM (inactive); in [19], 26.9 µM (inactive).
In the case of `O=C1C(Cl)N(c2ccc([N+](=O)[O-])cc2)C1c1c[nH]c2ccccc12` (configuration not stated), the GI50 in [1] is 66.2 µM (inactive); in [2] it was > 100 µM (inactive); in [3], > 100 µM (inactive); in [4], > 100 µM (inactive); in assay [5], > 100 µM (inactive); in assay [6], > 100 µM (inactive). The GI50 in assay [7] is 55 µM (inactive); in assay [8], > 100 µM (inactive); in assay [9], 31 µM (inactive); in assay [10] it was 77.6 µM (inactive); in assay [11], 51.3 µM (inactive); in assay [12] it was 30.8 µM (inactive). For the same compound, the GI50 is > 100 µM (inactive) in assay [14]; 33 µM (inactive) in [15]; 9.25 µM (inactive) in [16]; 56.8 µM (inactive) in [17]; 83 µM (inactive) in assay [18].
Take `CCN(CC)Cc1cc(Nc2c3ccccc3nc3c2[nH]c2ccccc23)ccc1O`: the GI50 in assay [1] is 1.36 µM (inactive); in assay [2], 0.352 µM (active); in assay [3] it was 1.14 µM (inactive); in assay [4] it was 1.37 µM (inactive); in [5], 1.67 µM (inactive); in assay [6], 2.45 µM (inactive). For the same compound, the GI50 is 1.87 µM (inactive) in assay [7]; 1.63 µM (inactive) in assay [8]; 2.16 µM (inactive) in assay [9]; 1.16 µM (inactive) in assay [10]; 1.62 µM (inactive) in assay [11]; 1.96 µM (inactive) in [12]. In addition, the GI50 was 0.853 µM in [13]; 1.08 µM (active) in [14]; 1.35 µM (inactive) in [15]; 1.13 µM (inactive) in assay [17]; 1.5 µM (inactive) in assay [18]; 1.85 µM (inactive) in assay [19].
Turning to `COc1ccc(-c2cc(-c3ccccc3)c3c(n2)-c2ccccc2NC(=O)C3)cc1`, the GI50 is 35.4 µM (inactive) in [1]; 49.4 µM (inactive) in assay [2]; 36 µM (inactive) in [3]; 47.5 µM (inactive) in assay [4]; 58.6 µM (inactive) in [5]; 40.3 µM (inactive) in [6]. The GI50 was 53 µM (inactive) in [20]; 1.47 µM (inactive) in assay [7]; 34.7 µM (inactive) in assay [8]; > 100 µM (inactive) in [9]; 13.8 µM (inactive) in assay [10]; 98.2 µM (inactive) in assay [11]. Also, the GI50 in [12] was > 100 µM (inactive); in assay [13] it was 17.7 µM; in assay [14], 9.66 µM (inactive); in [15], > 100 µM (inactive); in assay [18], 27 µM (inactive); in [19], 58.2 µM (inactive).
As to `Cc1n(CC(=O)c2ccc([N+](=O)[O-])cc2)c2c([n+]1CC(C)C)C(=O)c1ccccc1C2=O`, the GI50 is < 0.0211 µM (active) in assay [1]; < 0.0318 µM (active) in [2]; 0.29 µM (active) in assay [3]; 0.329 µM (active) in assay [4]; < 0.01 µM (active) in [5]; < 0.0109 µM (active) in assay [6]. Moreover, the GI50 in [7] was < 0.01 µM (active); in assay [8], < 0.015 µM (active); in [9], < 0.01 µM (active); in assay [10] it was < 0.01 µM (active); in [11] it was < 0.0334 µM (active); in assay [12], < 0.01 µM (active). In addition, the GI50 in assay [13] is 2.88 µM; in assay [14], < 0.01 µM (active); in [15], < 0.01 µM (active); in [16] it was < 0.0172 µM (active); in [17] it was < 0.01 µM (active); in [18] it was < 0.0226 µM (active). Moreover, in [19], the GI50 is < 0.0111 µM (active).
